The values that follow are results of earlier work, collected in patent US20120252695A1 (Janssen R&D Ireland, priority 2009, published 2012).

This data set has as its system HCV. As to conditions: carriers of two copies of the advantageous IL28B variant; multi-ethnic population.

With IFN-α, the “patients who cleared the virus and remained virus-free 24 weeks post-treatment” value is listed as “approximately 80%”.
